These are literature values, as cited in patent US20230218514A1, “FLOATING SUSTAINED RELEASE TABLET FORMULATION OF DROXIDOPA AND METHOD THEREOF” (priority 2022, published 2023).

A word on the Cmax: it is the peak of the concentration-time curve. The term Tmax denotes the time at which the peak concentration occurs. As usually defined, the Solubility is the concentration that dissolves in the medium under given conditions.

One series concerns rats. Particulars: rat, in vivo.
Experiment in series [1]: not given
This is another data set of the same source.

Experiment in series [2]: not given
This is another data set of the same source.

Another series deals with dogs. Particulars: dog, in vivo.
In a further series the test system is monkeys. The conditions noted are these: monkey, in vivo.
In the next series the test system is mice. Particulars: mouse, in vivo.

With `N[C@H](C(=O)O)[C@H](O)c1ccc(O)c(O)c1` [Droxidopa, (2S,3R)-2-amino-3-(3,4-dihydroxyphenyl)-3-hydroxypropanoic acid], for the setting “in vivo”, the highest concentration (Cmax) is listed as 3160 ng/mL, the Elimination half life is 2.5 h, the Half-life is 2 to 3 h and the Route of elimination entry is listed as “mainly eliminated through urine”. In addition, under “in vivo”, the time of peak concentration (Tmax) is 1 to 4 h and the Volume of distribution is listed as 200 L. In addition, the Oral bioavailability (oral) is on record as 90%. The “Acute oral LD50” value with rats is reported as “more than 5 g/kg”. Besides, the Protein binding in series [1] is 75%. For the same compound, the Solubility in series [2] was ≥ 3000 µg/mL. Further, the “Stability in alkaline medium” value in series [2] (alkaline medium) is recorded as “highly unstable”. Further, in series [2] (dilute HCl), the “Solubility in dilute HCl” value is “Soluble”. Besides, the “Solubility in organic solvents” value in series [2] (methanol, glacial acetic acid, ethanol, acetone, chloroform) was “Practically insoluble”. In series [2] (water), the Solubility in water result is reported as “Slightly soluble”. Also, the “Acute oral LD50” value in the series with dogs was “more than 5 g/kg”. The “Acute oral LD50” value in the series with monkeys was “more than 5 g/kg”. The Hepatotoxicity entry with patients (human, in vivo) is reported as “not found”. Besides, the “Side effects, share of patients” value in the series with patients (nausea, headache, dizziness, increased B.P, hallucination and anorexia) is 0.78%. For the same compound, the “Acute oral LD50” value with mice was “more than 5 g/kg”.
